Experimental data from ChEMBL document CHEMBL1201862, “PubChem BioAssay data set” (2004).
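96-well plates; 48 h exposure; 5 concentrations. Endpoints by linear interpolation between flanking doses. Not reached: highest tested concentration assigned. At the GI50, growth is halved.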 Activity calls are given as the source filed them. Rule as the data show it: active = GI50 up to about 1.1 µM and inactive = higher.

Columns and labels:
Test in all cases: growth of human tumour cells (NCI), 48 h
M14 = system: M14
EKVX = system: EKVX
SNB-19 = system: SNB-19
LOX IMVI = system: LOX IMVI
HOP-92 = system: HOP-92
SW-620 = system: SW-620
UACC-62 = system: UACC-62
NCI-H460 = system: NCI-H460
SF-268 = system: SF-268
HCT-15 = system: HCT-15
XF498 = system: XF498
CCRF-CEM = system: CCRF-CEM
OVCAR-5 = system: OVCAR-5
DMS-273 = system: DMS-273
SK-MEL-5 = system: SK-MEL-5
KM12 = system: KM12
IGROV-1 = system: IGROV-1
LXFL 529 = system: LXFL 529
SK-MEL-28 = system: SK-MEL-28
SK-MEL-2 = system: SK-MEL-2
KM-20L2 = system: KM-20L2
SR = system: SR
NCI-H23 = system: NCI-H23
RPMI-8226 = system: RPMI-8226
U-251 = system: U-251
SK-OV-3 = system: SK-OV-3
HCC 2998 = system: HCC 2998
NCI-H522 = system: NCI-H522
ACHN = system: ACHN
DMS-114 = system: DMS-114
OVCAR-4 = system: OVCAR-4
RXF 393 = system: RXF 393
SNB-75 = system: SNB-75
SF-295 = system: SF-295
OVCAR-8 = system: OVCAR-8
MOLT-4 = system: MOLT-4
K562 = system: K562
DLD-1 = system: DLD-1
OVCAR-3 = system: OVCAR-3
HL-60 = system: HL-60
TK-10 = system: TK-10
Malme-3M = system: Malme-3M
A549 = system: A549
CAKI-1 = system: CAKI-1
A498 = system: A498
RXF 631 = system: RXF 631
HCT-116 = system: HCT-116
NCI-H226 = system: NCI-H226
HOP-18 = system: HOP-18
UACC-257 = system: UACC-257
786-0 = system: 786-0
COLO 205 = system: COLO 205
UO-31 = system: UO-31
HT-29 = system: HT-29
HOP-62 = system: HOP-62
M19-MEL = system: M19-MEL
SF-539 = system: SF-539
SN12C = system: SN12C
SNB-78 = system: SNB-78

SMILES: O=[N+]([O-])c1cc([N+](=O)[O-])c(C(Cl)C(Cl)c2ccccc2)cc1C(Cl)C(Cl)c1ccccc1 (centres undefined)
- GI50 (M14): 1490 nM (inactive)
- GI50 (EKVX): 2200 nM (inactive)
- GI50 (SNB-19): 2320 nM (inactive)
- GI50 (LOX IMVI): 1640 nM (inactive)
- GI50 (HOP-92): 1600 nM (inactive)
- GI50 (SW-620): 1610 nM (inactive)
- GI50 (UACC-62): 1840 nM (inactive)
- GI50 (NCI-H460): 2020 nM (inactive)
- GI50 (SF-268): 1770 nM (inactive)
- GI50 (HCT-15): 1480 nM
- GI50 (XF498): 1870 nM (inactive)
- GI50 (CCRF-CEM): 2210 nM (inactive)
- GI50 (OVCAR-5): 2140 nM (inactive)
- GI50 (DMS-273): 2030 nM (inactive)
- GI50 (SK-MEL-5): 1660 nM (inactive)
- GI50 (KM12): 1850 nM (inactive)
- GI50 (IGROV-1): 2460 nM (inactive)
- GI50 (LXFL 529): 1540 nM (inactive)
- GI50 (SK-MEL-28): 1900 nM (inactive)
- GI50 (SK-MEL-2): 2000 nM (inactive)
- GI50 (KM-20L2): 2060 nM (inactive)
- GI50 (SR): 3180 nM (inactive)
- GI50 (NCI-H23): 1650 nM (inactive)
- GI50 (RPMI-8226): 1070 nM (active)
- GI50 (U-251): 1820 nM (inactive)
- GI50 (SK-OV-3): 6340 nM (inactive)
- GI50 (HCC 2998): 1760 nM (inactive)
- GI50 (NCI-H522): 1610 nM (inactive)
- GI50 (ACHN): 1770 nM (inactive)
- GI50 (DMS-114): 1700 nM (inactive)
- GI50 (OVCAR-4): 2640 nM (inactive)
- GI50 (RXF 393): 1330 nM (inactive)
- GI50 (SNB-75): 2470 nM (inactive)
- GI50 (SF-295): 2150 nM (inactive)
- GI50 (OVCAR-8): 1870 nM (inactive)
- GI50 (MOLT-4): 2300 nM (inactive)
- GI50 (K562): 1690 nM (inactive)
- GI50 (DLD-1): 1710 nM (inactive)
- GI50 (OVCAR-3): 2200 nM (inactive)
- GI50 (HL-60): 7290 nM (inactive)
- GI50 (TK-10): 2340 nM (inactive)
- GI50 (Malme-3M): 1760 nM (inactive)
- GI50 (A549): 2050 nM (inactive)
- GI50 (CAKI-1): 1710 nM (inactive)
- GI50 (A498): 1820 nM (inactive)
- GI50 (RXF 631): 2070 nM (inactive)
- GI50 (HCT-116): 1190 nM (inactive)
- GI50 (NCI-H226): 2230 nM (inactive)
- GI50 (HOP-18): 1460 nM (inactive)
- GI50 (UACC-257): 1840 nM (inactive)
- GI50 (786-0): 1690 nM (inactive)
- GI50 (COLO 205): 1730 nM (inactive)
- GI50 (UO-31): 1510 nM (inactive)
- GI50 (HT-29): 2170 nM (inactive)
- GI50 (HOP-62): 3660 nM (inactive)
- GI50 (M19-MEL): 1830 nM (inactive)
- GI50 (SF-539): 1800 nM (inactive)
- GI50 (SN12C): 1750 nM (inactive)
- GI50 (SNB-78): 2990 nM (inactive)
